Laboratory results published in paper PMC12507957 (Drug Delivery and Translational Research, 2025).
Read-outs that look alike come from different tables or passages of the source.

Test: Mass balance studies after skin permeation of MTG gels
Type: in vitro ADME, porcine
Conditions: pig
Procedure: The in vitro permeation study was performed in triplicate using Franz diffusion cell apparatus with a diffusion area of ~ 0.8 cm^2 and a receptor volume of ~ 3 mL. The porcine skin was thawed at room temperature and cut into an appropriate size before mounting on the Franz diffusion cells. The receptor compartment was filled with PBS containing 0.02%w/v of sodium azide and a selected antioxidant. The Franz diffusion cells were placed into a water bath to maintain the skin temperature at 32 ± 0.5 °C. […] After 48-h permeation studies, the mass balance studies were performed. The samples were extracted for MTG content overnight before HPLC analysis.
Immediately post-application, any remaining MTG was swabbed from the skin surface with cotton buds and added into an Eppendorf tube. Subsequently, the surface of the skin was washed twice with 500 μL of methanol before adding to the same Eppendorf tube containing the cotton buds. The skin was removed from the dissembled Franz diffusion cell and cut into pieces before placing in another Eppendorf tube containing 1 mL of methanol. All samples were vortexed and analysed using HPLC (Sect. HPLC analysis).
BHT at the optimised concentration was also added accordingly. The gels were evaluated for their drug content by mixing the gel in methanol for overnight extraction of MTG before HPLC analysis (Sect. HPLC analysis). In vitro drug release studies were carried out with a similar experimental setup as described in Sect. In vitro permeation and mass balance studies but porcine skin was replaced with a 0.45 µm nylon membrane filter and 40 μL of gel was loaded on the membrane at the donor compartment. Subsequent in vitro permeation and mass balance studies were performed as described in Sect. In vitro permeation and mass balance studies by loading 40 μL of the gel on the skin.

## CC[C@@H]1CN2CCc3c([nH]c4cccc(OC)c34)[C@@H]2C[C@@H]1/C(=C\OC)C(=O)OC [MTG, mitragynine]
1% MTG gel with DMSO and BHT, read-out: Total percentage (mass balance recovery)
  recovery at 48 h, 1 %: 81.3 ± 24.3%
1% MTG gel with PG and BHT, read-out: Total percentage (mass balance recovery)
  recovery at 48 h, 1 %: 85.5 ± 16.1%
1% MTG gel with Transcutol and BHT, read-out: Total percentage (mass balance recovery)
  recovery at 48 h, 1 %: 87.7 ± 10.8%
All gel formulations (DMSO, PG, Transcutol) with BHT, read-out: Total drug recovery (mass balance)
  recovery at 48 h, 1 %: > 80%
